What all share (format): in vivo, rat
For experiment [1], the system named is rats with controlled cortical impact (CCI) injury. The experiment is described as follows: Modified neurological severity score (mNSS) after CCI injury. Particulars: P<0.05. Here is the method:
A previously described CCI injury procedure was utilized (Chen et al., 2003). Male Sprague-Dawley rats, which have body weight of 250-300 g, were anaesthetized with sodium pentobarbital (i.p.; 50 mgkg^−1; Rhone Merieux, Harlow, UK) and placed in a stereotaxic frame. A 5-mm craniotomy was performed over the left parietal cortex, centered on the coronal suture and 3 mm lateral to the sagittal suture. Considerable care was taken to avoid injury to the underlying dura. Injury was made using a pneumatic piston with a rounded metal tip (2.5 mm diameter) that was angled 22.5° C. to the vertical so that the tip was perpendicular with the brain surface at the centre of the craniotomy. A velocity of 4 ms^−1 and a deformation depth 2 mm below the dura were used. The bone flap was immediately replaced and sealed, and the scalp was closed with sutures. Body temperature was monitored throughout the surgery by a rectal probe; temperature was maintained at 37.0±0.5° C. using a heated pad. Rats were placed in a heated cage to maintain body temperature, while recovering from anaesthesia. Baicalein (30 mg kg^−1) dissolved in 10% dimethyl sulphoxide (0.25-0.3 mL) or a corresponding volume of vehicle (10% dimethyl sulphoxide) was administered i.p. immediately following injury or daily for 4 days (immediately, 25, 49 and 73 h) after injury. Behaviour testing using the rotarod, tactile adhesive removal, mNSS and beam walk tests was performed at […] as well as 4, 7, 14, 21 and 28 days post-injury. At 14 and 28 days, the animals were killed, perfused intravascularly and their brains were processed with cresyl violet staining to assess contusion volume (n=8 for each group). […] Behaviour testing was performed before CCI and at […] after CCI by an observer who was unaware of the experimental treatments. The battery of tests consisted of the rotarod motor test, tactile adhesive-removal somatosensory test, mNSS and beam walk test. […] One point was scored for the inability to perform the test or for the lack of a tested reflex; thus, the higher the score, the more severe the injury. […]

The test system of a further experiment is IL-1β protein. The experiment can be described thus: ELISA, IL-1β protein after CCI injury. Particulars: single-dose 30 mg kg^-1 i.p.; ipsilateral cortex, 1 day post-injury; P<0.01. Here is the method: (§1) A previously described CCI injury procedure was utilized (Chen et al., 2003). Male Sprague-Dawley rats, which have body weight of 250-300 g, were anaesthetized with sodium pentobarbital (i.p.; 50 mgkg^−1; Rhone Merieux, Harlow, UK) and placed in a stereotaxic frame. A 5-mm craniotomy was performed over the left parietal cortex, centered on the coronal suture and 3 mm lateral to the sagittal suture. Considerable care was taken to avoid injury to the underlying dura. Injury was made using a pneumatic piston with a rounded metal tip (2.5 mm diameter) that was angled 22.5° C. to the vertical so that the tip was perpendicular with the brain surface at the centre of the craniotomy. A velocity of 4 ms^−1 and a deformation depth 2 mm below the dura were used. […] Body temperature was monitored throughout the surgery by a rectal probe; temperature was maintained at 37.0±0.5° C. using a heated pad. […]
(§2) Single-dose baicalein (30 mg kg^−1) or a corresponding volume of vehicle was administered i.p. immediately following injury. […] Testing after injury was as follows: (1) real-time quantitative RT-PCR analysis for TNF-α, IL-1β and IL-6 mRNA expression at 6 h post-injury (n=7 for each group); (2) FluoroJade B (FJB) staining, TNF-α, IL-1β and IL-6 immunohistochemistry, as well as ELISA at 24 h post-injury to assess degenerative neurons and to determine cytokine expression (n=7 for each group). […]
Background: ELISA stands for enzyme-linked immunosorbent assay.

Another experiment relates to IL-6 protein. The experiment can be described thus: ELISA, IL-6 protein after CCI injury. Particulars: single-dose 30 mg kg^-1 i.p.; ipsilateral cortex, 1 day post-injury; P<0.01. Here is the method: as §1, §2

Results on one compound are retold here after patent US20100222421A1, “Usage of Baicalein in the Preparation of a Pharmaceutical Composition for the Treatment of Traumatic Brain Injury” (National Defense Medical Center, priority 2009, published 2010).

Take `O=c1cc(-c2ccccc2)oc2cc(O)c(O)c(O)c12` [baicalein]: the “mNSS neurological deficit, multiple-dose versus single-dose treatment” value in experiment [1] (30 mg kg^-1 i.p., days 4 and 7 after injury) is given as “significantly greater reduction”. Moreover, the “mNSS scores versus vehicle-treated group” value in experiment [1] (multiple-dose 30 mg kg^-1 i.p. daily for 4 days, days 1-28) is “significantly less”; in experiment [1] (single-dose 30 mg kg^-1 i.p., days 1-14), “significantly less”. The “IL-1β protein concentration, % of concentration in vehicle-treated rats” value in the experiment on IL-1β protein was found to be 42%. The “IL-6 protein concentration, % of concentration in vehicle-treated rats” value in the experiment on IL-6 protein is 67%.
